How the values were obtained:
Type in all cases: in vivo
[1] = system: barnyardgrass (Echinochloa crus-galli); assay: Test G Pre-Emergence Protocol; settings: Echinochloa crus-galli, pre-emergence, 312 h, evaluated after 13 days; for pest or weed control at 15.625 g/ha: 15.625 g ai/ha; for pest or weed control at 15.625 g/ha / pest or weed control at 250 g/ha: read-out: Barnyardgrass damage rating (100=total damage to plant; 0=no damage to plant); for pest or weed control at 62.5 g/ha: 62.5 g ai/ha, 100=total damage to plant, 0=no damage to plant, read-out: Barnyardgrass damage rating; for pest or weed control at 250 g/ha: 250 g ai/ha
Procedure, shortened: (§1)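 One day after sowing, pots are treated with a spray of test compound formulated in acetone/water 50:50 plus 0.5% Tween 20, giving 15.625, 62.5 or 250 g/ha. Evaluation on a 0–100 damage scale follows 13 days of glasshouse growth.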

corn (Zea mays) [2] = assay: Test G Pre-Emergence Protocol; settings: Zea mays, pre-emergence, 312 h, evaluated after 13 days; for plant injury at 15.625 g/ha: 15.625 g ai/ha; for plant injury at 15.625 g/ha / plant injury at 250 g/ha: read-out: Corn damage rating (100=total damage to plant; 0=no damage to plant); for plant injury at 62.5 g/ha: 62.5 g ai/ha, 100=total damage to plant, 0=no damage to plant, read-out: Corn damage rating; for plant injury at 250 g/ha: 250 g ai/ha
Procedure, shortened: as §1

[3] = system: giant foxtail (Setaria faberi); assay: Test G Pre-Emergence Protocol; settings: Setaria faberi, pre-emergence, 312 h, evaluated after 13 days; for pest or weed control at 15.625 g/ha: 15.625 g ai/ha; for pest or weed control at 15.625 g/ha / pest or weed control at 250 g/ha: read-out: Foxtail, Giant damage rating (100=total damage to plant; 0=no damage to plant); for pest or weed control at 62.5 g/ha: 62.5 g ai/ha, 100=total damage to plant, 0=no damage to plant, read-out: Foxtail, Giant damage rating; for pest or weed control at 250 g/ha: 250 g ai/ha
Procedure, shortened: as §1

[4] = system: ivy-leaved morning glory (Ipomoea hederacea); assay: Test G Pre-Emergence Protocol; settings: Ipomoea, pre-emergence, 312 h, evaluated after 13 days; for pest or weed control at 15.625 g/ha: 15.625 g ai/ha; for pest or weed control at 15.625 g/ha / pest or weed control at 250 g/ha: read-out: Morningglory, Ivy-leaved damage rating (100=total damage to plant; 0=no damage to plant); for pest or weed control at 62.5 g/ha: 62.5 g ai/ha, 100=total damage to plant, 0=no damage to plant, read-out: Morningglory, Ivy-leaved damage rating; for pest or weed control at 250 g/ha: 250 g ai/ha
Procedure, shortened: as §1

[5] = system: redroot pigweed (Amaranthus retroflexus); assay: Test G Pre-Emergence Protocol; settings: Amaranthus retroflexus, pre-emergence, 312 h, evaluated after 13 days; for pest or weed control at 15.625 g/ha: 15.625 g ai/ha; for pest or weed control at 15.625 g/ha / pest or weed control at 250 g/ha: read-out: Pigweed, Redroot damage rating (100=total damage to plant; 0=no damage to plant); for pest or weed control at 62.5 g/ha: 62.5 g ai/ha, 100=total damage to plant, 0=no damage to plant, read-out: Pigweed, Redroot damage rating; for pest or weed control at 250 g/ha: 250 g ai/ha
Procedure, shortened: as §1

[6] = system: velvetleaf (Abutilon theophrasti); assay: Test G Pre-Emergence Protocol; settings: Abutilon theophrasti, pre-emergence, 312 h, evaluated after 13 days; for pest or weed control at 15.625 g/ha: 15.625 g ai/ha; for pest or weed control at 15.625 g/ha / pest or weed control at 250 g/ha: read-out: Velvetleaf damage rating (100=total damage to plant; 0=no damage to plant); for pest or weed control at 62.5 g/ha: 62.5 g ai/ha, 100=total damage to plant, 0=no damage to plant, read-out: Velvetleaf damage rating; for pest or weed control at 250 g/ha: 250 g ai/ha
Procedure, shortened: as §1

[7] = system: barnyardgrass (Echinochloa crus-galli); assay: Test G Post-Emergence Protocol; settings: Echinochloa crus-galli, post-emergence, 312 h, read-out: Barnyardgrass damage rating; for pest or weed control at 15.625 g/ha: 15.625 g ai/ha, evaluated after 13 days (100=total damage to plant; 0=no damage to plant); for pest or weed control at 62.5 g/ha: 62.5 g ai/ha; for pest or weed control at 62.5 g/ha / pest or weed control at 250 g/ha: evaluated after 13 days, 100=total damage to plant, 0=no damage to plant; for pest or weed control at 250 g/ha: 250 g ai/ha
Procedure, shortened: (§2)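 A glasshouse post-emergence test: 8-day-old plants sprayed at 15.625, 62.5 or 250 g/ha, then grown at 24/16 °C day/night with 14 h light and 65% humidity. Damage rated 13 days later, 0–100.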

corn (Zea mays) [8] = assay: Test G Post-Emergence Protocol; settings: Zea mays, post-emergence, 312 h, read-out: Corn damage rating; for plant injury at 15.625 g/ha: 15.625 g ai/ha, evaluated after 13 days (100=total damage to plant; 0=no damage to plant); for plant injury at 62.5 g/ha: 62.5 g ai/ha; for plant injury at 62.5 g/ha / plant injury at 250 g/ha: evaluated after 13 days, 100=total damage to plant, 0=no damage to plant; for plant injury at 250 g/ha: 250 g ai/ha
Procedure, shortened: as §2

[9] = system: giant foxtail (Setaria faberi); assay: Test G Post-Emergence Protocol; settings: Setaria faberi, post-emergence, 312 h, read-out: Foxtail, Giant damage rating; for pest or weed control at 15.625 g/ha: 15.625 g ai/ha, evaluated after 13 days (100=total damage to plant; 0=no damage to plant); for pest or weed control at 62.5 g/ha: 62.5 g ai/ha; for pest or weed control at 62.5 g/ha / pest or weed control at 250 g/ha: evaluated after 13 days, 100=total damage to plant, 0=no damage to plant; for pest or weed control at 250 g/ha: 250 g ai/ha
Procedure, shortened: as §2

[10] = system: ivy-leaved morning glory (Ipomoea hederacea); assay: Test G Post-Emergence Protocol; settings: Ipomoea, post-emergence, 312 h, read-out: Morningglory, Ivy-leaved damage rating; for pest or weed control at 15.625 g/ha: 15.625 g ai/ha, evaluated after 13 days (100=total damage to plant; 0=no damage to plant); for pest or weed control at 62.5 g/ha: 62.5 g ai/ha; for pest or weed control at 62.5 g/ha / pest or weed control at 250 g/ha: evaluated after 13 days, 100=total damage to plant, 0=no damage to plant; for pest or weed control at 250 g/ha: 250 g ai/ha
Procedure, shortened: as §2

[11] = system: redroot pigweed (Amaranthus retroflexus); assay: Test G Post-Emergence Protocol; settings: Amaranthus retroflexus, post-emergence, 312 h, read-out: Pigweed, Redroot damage rating; for pest or weed control at 15.625 g/ha: 15.625 g ai/ha, evaluated after 13 days (100=total damage to plant; 0=no damage to plant); for pest or weed control at 62.5 g/ha: 62.5 g ai/ha; for pest or weed control at 62.5 g/ha / pest or weed control at 250 g/ha: evaluated after 13 days, 100=total damage to plant, 0=no damage to plant; for pest or weed control at 250 g/ha: 250 g ai/ha
Procedure, shortened: as §2

[12] = system: velvetleaf (Abutilon theophrasti); assay: Test G Post-Emergence Protocol; settings: Abutilon theophrasti, post-emergence, 312 h, read-out: Velvetleaf damage rating; for pest or weed control at 15.625 g/ha: 15.625 g ai/ha, evaluated after 13 days (100=total damage to plant; 0=no damage to plant); for pest or weed control at 62.5 g/ha: 62.5 g ai/ha; for pest or weed control at 62.5 g/ha / pest or weed control at 250 g/ha: evaluated after 13 days, 100=total damage to plant, 0=no damage to plant; for pest or weed control at 250 g/ha: 250 g ai/ha
Procedure, shortened: as §2

| SMILES | pest or weed control at 15.625 g/ha [1] [%] | pest or weed control at 62.5 g/ha [1] [%] | pest or weed control at 250 g/ha [1] [%] | plant injury at 15.625 g/ha (corn (Zea mays) [2]) [%] | plant injury at 62.5 g/ha (corn (Zea mays) [2]) [%] | plant injury at 250 g/ha (corn (Zea mays) [2]) [%] | pest or weed control at 15.625 g/ha [3] [%] | pest or weed control at 62.5 g/ha [3] [%] | pest or weed control at 250 g/ha [3] [%] | pest or weed control at 15.625 g/ha [4] [%] | pest or weed control at 62.5 g/ha [4] [%] | pest or weed control at 250 g/ha [4] [%] | pest or weed control at 15.625 g/ha [5] [%] | pest or weed control at 62.5 g/ha [5] [%] | pest or weed control at 250 g/ha [5] [%] | pest or weed control at 15.625 g/ha [6] [%] | pest or weed control at 62.5 g/ha [6] [%] | pest or weed control at 250 g/ha [6] [%] | pest or weed control at 15.625 g/ha [7] [%] | pest or weed control at 62.5 g/ha [7] [%] | also measured |
| --- | --- | --- | --- | --- | --- | --- | --- | --- | --- | --- | --- | --- | --- | --- | --- | --- | --- | --- | --- | --- | --- |
| CN1C[C@@H](c2ccc(CO)cc2)[C@H](C(=O)Nc2cccc(F)c2F)C1=O (racemic) [Compound 1820] | 0 | 0 | 0 | 0 | 0 | 0 | 0 | 0 | 0 | 0 | 0 | 0 | 0 | 0 | 0 | 0 | 0 | 0 | 0 | 0 | pest or weed control at 250 g/ha [7]: 0%; plant injury at 15.625 g/ha (corn (Zea mays) [8]): 0%; plant injury at 62.5 g/ha (corn (Zea mays) [8]): 0%; plant injury at 250 g/ha (corn (Zea mays) [8]): 0%; pest or weed control at 15.625 g/ha [9]: 0%; pest or weed control at 62.5 g/ha [9]: 0%; pest or weed control at 250 g/ha [9]: 0%; pest or weed control at 15.625 g/ha [10]: 0%; pest or weed control at 62.5 g/ha [10]: 0%; pest or weed control at 250 g/ha [10]: 0%; pest or weed control at 15.625 g/ha [11]: 0%; pest or weed control at 62.5 g/ha [11]: 0%; pest or weed control at 250 g/ha [11]: 0%; pest or weed control at 15.625 g/ha [12]: 0%; pest or weed control at 62.5 g/ha [12]: 0%; pest or weed control at 250 g/ha [12]: 0% |
| CN1C[C@@H](c2cc(Br)cc(Oc3ccccc3)c2)[C@H](C(=O)Nc2cccc(F)c2F)C1=O (racemic) [Compound 1821] | 0 | 0 | 0 | 0 | 10 | 0 | 0 | 10 | 60 | 0 | 0 | 0 | 0 | 0 | 20 | 0 | 0 | 0 | 0 | 0 | pest or weed control at 250 g/ha [7]: 0%; plant injury at 15.625 g/ha (corn (Zea mays) [8]): 10%; plant injury at 62.5 g/ha (corn (Zea mays) [8]): 10%; plant injury at 250 g/ha (corn (Zea mays) [8]): 30%; pest or weed control at 15.625 g/ha [9]: 0%; pest or weed control at 62.5 g/ha [9]: 10%; pest or weed control at 250 g/ha [9]: 30%; pest or weed control at 15.625 g/ha [10]: 0%; pest or weed control at 62.5 g/ha [10]: 0%; pest or weed control at 250 g/ha [10]: 10%; pest or weed control at 15.625 g/ha [11]: 0%; pest or weed control at 62.5 g/ha [11]: 30%; pest or weed control at 250 g/ha [11]: 70%; pest or weed control at 15.625 g/ha [12]: 0%; pest or weed control at 62.5 g/ha [12]: 10%; pest or weed control at 250 g/ha [12]: 0% |
| Cc1c(F)cccc1NC(=O)[C@@H]1C(=O)N(C)C[C@H]1c1cccc(C(C)(C)F)c1 (racemic) [Compound 1827] | 0 | 80 | 90 | 0 | 0 | 50 | 40 | 90 | 90 | 0 | 0 | 20 | 0 | 0 | 0 | 0 | 0 | 10 | 0 | 70 | pest or weed control at 250 g/ha [7]: 80%; plant injury at 15.625 g/ha (corn (Zea mays) [8]): 0%; plant injury at 62.5 g/ha (corn (Zea mays) [8]): 10%; plant injury at 250 g/ha (corn (Zea mays) [8]): 60%; pest or weed control at 15.625 g/ha [9]: 50%; pest or weed control at 62.5 g/ha [9]: 80%; pest or weed control at 250 g/ha [9]: 80%; pest or weed control at 15.625 g/ha [10]: 0%; pest or weed control at 62.5 g/ha [10]: 10%; pest or weed control at 250 g/ha [10]: 10%; pest or weed control at 15.625 g/ha [11]: 0%; pest or weed control at 62.5 g/ha [11]: 0%; pest or weed control at 250 g/ha [11]: 0%; pest or weed control at 15.625 g/ha [12]: 0%; pest or weed control at 62.5 g/ha [12]: 0%; pest or weed control at 250 g/ha [12]: 40% |
